Results taken from patent publication US7262165B2, “Aqueous preparation containing oligopeptides and etherified cyclodextrin” (Merck Patent GmbH, priority 2002, dated 2007).
≈ marks a conversion by molar mass, not a printed value.

Assay: Saturation solubilities of the oligopeptide (cilengitide) in the solvent indicated, with pH
Format: physicochemical
Settings: in physiological saline solution
Method: In order to determine the saturation solubilities, the oligopeptide was stirred for 1 hour at room temperature in the solvent indicated in each case.
Analogously to Example 1, the effect of addition of β-cyclodextrin ethers (MS 0.63) on the saturation solubilities of the oligopeptides was determined using the example of cilengitide.

- solubility at 1 h: ~19 mg/mL (≈ 32.3 mM)
SMILES: CC(C)[C@H]1C(=O)N[C@@H](CCCN=C(N)N)C(=O)NCC(=O)N[C@@H](CC(=O)O)C(=O)N[C@H](Cc2ccccc2)C(=O)N1C [Cilengitide, cyclo-(Arg-Gly-Asp-D-Phe-NMe-Val)]
